{"source": "patent US20200360331A1", "about": "“COMPOSITIONS COMPRISING 15-HEPE AND/OR 15-HETrE AND METHODS OF TREATING OR PREVENTING CARDIOMETABOLIC DISEASE, METABOLIC SYNDROME, AND/OR RELATED DISEASES” (Afimmune Limited, priority 2019, published 2020)", "key": {"Alpha-SMA": {"tested_on": "Alpha-SMA", "assay": "UUO study: quantitative RT-PCR of kidney, Alpha-SMA", "format": "in vivo, C57BL/6 mice", "settings": "UUO mice kidney", "experimental": "Quantitative RT-PCR: Total ribonucleic acid (RNA) was extracted from kidney samples using RNAiso (Takara Bio, Japan) according to the manufacturer's instructions. One μg of RNA was reverse-transcribed using a reaction mixture containing […] (mM) of magnesium chloride (MgCl2) (F. Hoffmann-La Roche, Switzerland), 40 U RNase inhibitor (Toyobo, Japan), 0.5 mM dNTP (Promega, USA), 6.28 μM random hexamer (Promega), 5× first strand buffer (Promega), 10 mM dithiothreitol (Invitrogen, USA) and 200 U MMLV-RT (Invitrogen) in a final volume of 20 μL. The reaction was carried out for 1 hour at 37° C., followed by 5 minutes at 99° C. Real-time PCR was performed using real-time PCR DICE and TB Green™ Premix Ex Taq™ II (Takara Bio). To calculate the relative […] (mRNA) expression level, the expression of each gene (e.g., α-SMA, TIMP-1, TGF-β and Collagen Type 1) was normalized to that of reference gene 36B4 (gene symbol: Rplp0). Information regarding the PCR-primer sets and the plate layout are described in Tables 1 and 2."}, "type II TGF-β receptor": {"target": "T1, type II TGF-β receptor (Homo sapiens, UniProt P37173)", "T1 construct": "endogenous in cells; host or cells: HepG2", "T1 sequence (P37173 23-567)": "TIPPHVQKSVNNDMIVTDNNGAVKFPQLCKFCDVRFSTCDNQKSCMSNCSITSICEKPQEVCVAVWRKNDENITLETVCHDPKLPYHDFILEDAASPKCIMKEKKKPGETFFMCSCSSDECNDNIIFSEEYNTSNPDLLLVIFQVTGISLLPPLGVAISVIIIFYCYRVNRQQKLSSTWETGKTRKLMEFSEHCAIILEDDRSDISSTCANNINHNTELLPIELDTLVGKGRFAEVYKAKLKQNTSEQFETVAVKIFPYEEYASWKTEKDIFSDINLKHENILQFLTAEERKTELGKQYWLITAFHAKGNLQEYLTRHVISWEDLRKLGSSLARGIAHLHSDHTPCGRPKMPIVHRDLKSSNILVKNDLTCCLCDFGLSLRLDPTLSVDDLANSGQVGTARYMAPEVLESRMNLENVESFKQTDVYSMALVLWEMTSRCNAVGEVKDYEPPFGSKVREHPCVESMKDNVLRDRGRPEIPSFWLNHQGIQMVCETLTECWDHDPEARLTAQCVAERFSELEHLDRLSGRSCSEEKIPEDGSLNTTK", "assay": "Degradation of type II TGF-β receptor in HepG2 cells", "format": "cell-based", "settings": "increasing doses for 1 hour, then 200 pM TGF-β for 48 hours", "experimental": "The effects of 15-HEPE on TGF-β-induced signaling and cellular responses were determined. To test the effect of 15-HEPE on TGF-β-induced signaling, the activities of 15-HEPE to regulate TGF-β-stimulated Smad2 phosphorylation and nuclear translocation, both of which are key signaling events leading to TGF-β-induced cellular responses, were tested. One important biological activity of TGF-β is transcriptional activation of genes responsible for epithelial-mesenchymal transition (EMT), which is a crucial event in wound healing, tissue fibrosis, and cancer progression. The effect of 15-HEPE on TGFβ-induced epithelial mesenchymal transition related proteins (such as fibronectin, PAI-1, and N-cadherin etc.) expression in HepG2 and […] cells were assessed. HepG2 cells (human hepatoma cell line) were treated in increasing doses of 15-HEPE stage II in DMEM containing 0.1% of FBS for 1 hour and continually stimulated with or without 200 picomolar (pM) of TGF-β for 48 hours.\nHepG2 cells (human hepatoma cell line) were treated in increasing doses of 15-HEPE stage II in DMEM containing 0.1% of FBS for 1 hour and continually stimulated with or without 200 picomolar (pM) of TGF-β for 48 hours. The two panels shown in FIG. 18A are two separate experiments run under the same experimental conditions."}, "NAFLD patients [1]": {"tested_on": "NAFLD patients", "assay": "Phase IIa NAFLD study: lipid profile", "format": "in vivo, human", "settings": "for Triglycerides (median placebo-corrected % change from baseline): 2 g", "excerpt": "Exploratory analysis: The exploratory analysis included analysis of lipid and metabolic parameters including total cholesterol, triglycerides, very low-density lipoprotein cholesterol (VLDL-C), low density lipoprotein cholesterol (LDL-C), high density lipoprotein cholesterol (HDL-C), non-high-density lipoprotein cholesterol (non-HDL-C), remnant-like particle cholesterol (RLP-C), fasting glucose, insulin, free fatty acids and hemoglobin A1C (HbA1C). Additional exploratory analysis included high throughput lipidomics and proteomics.\nThe study was planned to include 96 evaluable patients with 32 patients randomized per treatment group.\nClinical Laboratory Safety Tests: Safety tests were performed for hematology, serum biochemistry, coagulation, lipid profile, and urinalysis: Blood and urine samples were taken as per the Study Flow Chart in Table 19 for routine hematology, serum biochemistry, coagulation and urinalysis tests, along with a Lipid Profile. All samples were analyzed in the central laboratory. All subjects were fasted for a minimum of 8 hours prior to blood sampling. If subjects had not fasted for a minimum of 8 hours, the duration of fasting time was recorded, and subjects encouraged to fast appropriately for the next clinical visit. • Hematology: Full blood count to include red cell count, hemoglobin, hematocrit, white cell count, differential white cell count, platelet count and reticulocyte count. • Serum biochemistry: Urea (blood urea nitrogen; BUN), creatinine, uric acid, total bilirubin, Indirect and Direct Bilirubin, sodium, bicarbonate potassium, phosphorus, calcium chloride, alkaline phosphatase (ALP), aspartate aminotransferase (AST), alanine aminotransferase (ALT), ALT/AST ratio, lactate dehydrogenase (LDH), creatine phosphokinase (CPK), albumin, total protein, cholesterol, triglycerides, glucose, C-reactive protein (CRP). • Coagulation: prothrombin time (PT), international normalized ratio (INR) and activated partial […]. • Lipid Profile: LDL, HDL, and VLDL-C. • Urinalysis: pH, protein, glucose, blood, ketones, leukocytes, leukocyte esterase, bilirubin, specific gravity, urobilinogen and nitrate. Reflex micro if blood, protein, leukocyte esterase or nitrate/nitrite are present."}, "NAFLD patients [2]": {"tested_on": "NAFLD patients", "assay": "Phase IIa NAFLD study: hepatic fat by CAP", "format": "in vivo, human", "settings": "patients diagnosed with NAFLD", "experimental": "The study was planned to include 96 evaluable patients with 32 patients randomized per treatment group. […] Liver stiffness and CAP: Liver stiffness and CAP were assessed using transient elastography (e.g., FibroScan® 502 Touch model or equivalent). Patients were fasted and scanned at the same time of the day, if possible, for baseline (Week 0) and Visit 10 (Week 16). For this assessment the following conditions were met: patients were lying in dorsal decubitus position with the right arm in maximal abduction behind the head, in a similar position to that used for liver biopsy (LB); the tip of the transducer was placed on the skin between the ribs over the right lobe of the liver (the physician took the measurements with the probe placed in the intercostal space); during the FibroScan® examination the choice of M+ or XL+ probe was determined by the Automatic Probe Selection tool (APS) (If, the APS tool advises to use the “XL+ probe” or “switch” continuously between “M+ and XL+ probe”, only the XL+ probe was used); and the operator, assisted by an ultrasonic time motion image, located a portion of the liver which is free of large vascular structures (the depth of measurement was between 35-75 mm for the XL+ probe and 25-65 mm for the M+ probe and the explored volume will be 3 cm^3). […] The final stiffness and CAP values was recorded as median values of valid measurements."}}}
{"smiles": "CC/C=C\\CC(O)/C=C/C=C\\C/C=C\\C/C=C\\CCCC(=O)O", "note": "(stereo not drawn) [DS102, 15-hydroxy-eicosa-5Z,8Z,11Z,13E,17Z-pentaenoic acid]", "values": [{"measurement": "Alpha-SMA gene expression", "setting": "Alpha-SMA; relative mRNA normalized to 36B4, 50 mg/kg PO QD Day 0-13", "value": "3.74 ± 0.81"}, {"measurement": "Alpha-SMA gene expression", "setting": "Alpha-SMA; relative mRNA normalized to 36B4, 500 mg/kg PO QD Day 0-13", "value": "5.54 ± 1.54"}, {"measurement": "degradation of type II TGF-β receptor", "setting": "type II TGF-β receptor", "value": "induced degradation of type II TGF-β receptor"}, {"measurement": "Triglycerides (median placebo-corrected % change from baseline)", "setting": "NAFLD patients [1]; Week 16, Full Analysis Set", "value": "−40.2", "unit": "%"}, {"measurement": "Triglycerides (median placebo-corrected % change from baseline)", "setting": "NAFLD patients [1]; Week 16, Subgroup: High Triglycerides (>200 mg/dL)", "value": "−20.4", "unit": "%"}, {"measurement": "Triglycerides (median placebo-corrected % change from baseline)", "setting": "NAFLD patients [1]; Week 16, Subgroup: Triglycerides > Upper Limit Normal (>150 mg/dL)", "value": "−39.0", "unit": "%"}, {"measurement": "triglyceride levels", "setting": "NAFLD patients [1]; NAFLD patients, Week 16", "value": "lowered"}, {"measurement": "lipid profile (total cholesterol, VLDL-C, non-HDL-C, RLP cholesterol, triglyceride levels)", "setting": "NAFLD patients [1]; Week 16, safety analysis set (SAS)", "value": "significantly improved"}, {"measurement": "hepatic fat content as assessed by CAP", "setting": "NAFLD patients [2]", "value": "reduced"}]}
